Reference: ChEMBL document CHEMBL1201862, “PubChem BioAssay data set” (2004)
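Interpolation was linear, between the two tested concentrations surrounding the appropriate level; five concentrations were tested over 48 hours in 96-well plates. GI50 marks 50% less growth.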 Active and inactive are the calls of the source. No stated cut-off is given here; in the data, active = GI50 up to about 1.1 µM and inactive = higher.

Experiments:
Experiment in all cases: DTP human tumour cell line panel, 48 h
MDA-MB-435 = test system: MDA-MB-435
CAKI-1 = test system: CAKI-1
UACC-62 = test system: UACC-62
CCRF-CEM = test system: CCRF-CEM
SF-268 = test system: SF-268
HOP-92 = test system: HOP-92
NCI-H226 = test system: NCI-H226
NCI-H522 = test system: NCI-H522
DU-145 = test system: DU-145
SN12C = test system: SN12C
NCI-H460 = test system: NCI-H460
SK-MEL-28 = test system: SK-MEL-28
T47D = test system: T47D
HOP-62 = test system: HOP-62
UO-31 = test system: UO-31
786-0 = test system: 786-0
MDA-MB-231 = test system: MDA-MB-231
RPMI-8226 = test system: RPMI-8226
PC-3 = test system: PC-3
NCI/ADR-RES = test system: NCI/ADR-RES
OVCAR-8 = test system: OVCAR-8
HL-60 = test system: HL-60
HCT-15 = test system: HCT-15
A498 = test system: A498
MOLT-4 = test system: MOLT-4
LOX IMVI = test system: LOX IMVI
OVCAR-4 = test system: OVCAR-4
NCI-H23 = test system: NCI-H23
SW-620 = test system: SW-620
U-251 = test system: U-251
UACC-257 = test system: UACC-257
SK-MEL-5 = test system: SK-MEL-5
SF-539 = test system: SF-539
SR = test system: SR
M14 = test system: M14
SF-295 = test system: SF-295
Malme-3M = test system: Malme-3M
HCC 2998 = test system: HCC 2998
SNB-19 = test system: SNB-19
HCT-116 = test system: HCT-116
OVCAR-3 = test system: OVCAR-3
BT-549 = test system: BT-549
ACHN = test system: ACHN
TK-10 = test system: TK-10
IGROV-1 = test system: IGROV-1
SK-MEL-2 = test system: SK-MEL-2
MCF7 = test system: MCF7
EKVX = test system: EKVX
OVCAR-5 = test system: OVCAR-5
HT-29 = test system: HT-29
COLO 205 = test system: COLO 205
RXF 393 = test system: RXF 393
Hs-578T = test system: Hs-578T
SNB-75 = test system: SNB-75
KM12 = test system: KM12
K562 = test system: K562
A549 = test system: A549
SK-OV-3 = test system: SK-OV-3

Measured: GI50

Nc1ccc2c(c1)C(=O)c1ccccc1-2
95.5 µM: HCT-15
inactive: MDA-MB-435 > 100 µM | CAKI-1 56.5 µM | UACC-62 > 100 µM | CCRF-CEM 71.6 µM | SF-268 > 100 µM | HOP-92 28.6 µM | NCI-H226 > 100 µM | NCI-H522 > 100 µM | DU-145 > 100 µM | SN12C > 100 µM | NCI-H460 > 100 µM | SK-MEL-28 > 100 µM | T47D 61.8 µM | HOP-62 > 100 µM | UO-31 68.2 µM | 786-0 > 100 µM | MDA-MB-231 > 100 µM | RPMI-8226 > 100 µM | PC-3 > 100 µM | NCI/ADR-RES > 100 µM | OVCAR-8 54.8 µM | HL-60 30.2 µM | A498 49 µM | MOLT-4 15.7 µM | LOX IMVI 73.1 µM | OVCAR-4 > 100 µM | NCI-H23 > 100 µM | SW-620 68.1 µM | U-251 > 100 µM | UACC-257 > 100 µM | SK-MEL-5 > 100 µM | SF-539 > 100 µM | SR 23.6 µM | M14 57.4 µM | SF-295 > 100 µM | Malme-3M > 100 µM | HCC 2998 93.3 µM | SNB-19 > 100 µM | HCT-116 > 100 µM | OVCAR-3 55.7 µM | BT-549 34 µM | ACHN 72.9 µM | TK-10 > 100 µM | IGROV-1 > 100 µM | SK-MEL-2 > 100 µM | MCF7 > 100 µM | EKVX 89.7 µM | OVCAR-5 > 100 µM | HT-29 > 100 µM | COLO 205 91.4 µM | RXF 393 > 100 µM | Hs-578T > 100 µM | SNB-75 > 100 µM | KM12 62.5 µM | K562 51.6 µM | A549 > 100 µM

Nc1ncnc2c1ncn2[C@@H]1O[C@H](COC(c2ccccc2)(c2ccccc2)c2ccccc2)[C@@H](OC(=S)Oc2ccccc2)[C@@H]1F
inactive: MDA-MB-435 4.03 µM | CAKI-1 9.73 µM | UACC-62 13.7 µM | CCRF-CEM 2.5 µM | SF-268 3.66 µM | HOP-92 8.43 µM | NCI-H226 11.4 µM | NCI-H522 2.24 µM | DU-145 15.1 µM | SN12C 4.46 µM | NCI-H460 13.1 µM | SK-MEL-28 15.2 µM | T47D 8.2 µM | HOP-62 15.5 µM | UO-31 4.16 µM | 786-0 4.58 µM | MDA-MB-231 10.7 µM | RPMI-8226 3.49 µM | PC-3 3.88 µM | NCI/ADR-RES 4.16 µM | OVCAR-8 3.37 µM | HL-60 3.18 µM | A498 18.3 µM | SK-OV-3 14.1 µM | MOLT-4 2.51 µM | LOX IMVI 3.88 µM | OVCAR-4 9.08 µM | NCI-H23 3.94 µM | SW-620 4.47 µM | U-251 10.2 µM | UACC-257 14.6 µM | SK-MEL-5 4.89 µM | SF-539 8.99 µM | SR 2.72 µM | M14 5.53 µM | SF-295 7.98 µM | HCC 2998 14 µM | SNB-19 11.5 µM | HCT-116 3.81 µM | OVCAR-3 4.55 µM | BT-549 4.95 µM | ACHN 10.7 µM | TK-10 17.6 µM | IGROV-1 3.23 µM | SK-MEL-2 5.47 µM | MCF7 3.82 µM | EKVX 12.3 µM | OVCAR-5 19.1 µM | HT-29 6.67 µM | COLO 205 12.4 µM | RXF 393 2.82 µM | Hs-578T 6.28 µM | SNB-75 14.8 µM | KM12 4.72 µM | K562 3.34 µM | A549 15 µM
3.37 µM: HCT-15
